Results reported in patent US6492342B1, “Hygromycin A prodrugs” (Pfizer Inc., priority 1999, dated 2002).

System: panel of bacterial strains
Assay: Microtiter tray MIC assay against a panel of bacterial strains (NCCLS)
Assay type: cell-based
Details: microtiter trays, compounds dissolved in DMSO
From the text: The assay, described below, employs conventional methodology and interpretation criteria and is designed to provide direction for chemical modifications that may lead to compounds with antibacterial activity against susceptible and drug-resistant organisms including, but not limited to, beta-lactam, macrolide and vancomycin resistance. In the assay, a panel of bacterial strains is assembled to include a variety of target pathogenic species, including representatives of antibiotic resistant bacteria. Use of this panel enables the chemical structure/activity relationship to be determined with respect to potency and spectrum of activity. The assay is performed in microtiter trays and interpreted according to Performance Standards for Antimicrobial Disk SusceDtibility Tests—Sixth Edition; Approved Standard, published by The National Committee for Clinical Laboratory Standards (NCCLS) guidelines; the minimum inhibitory concentration (MIC) is used to compare strains. Compounds are initially dissolved in dimethylsulfoxide (DMSO) as stock solutions.

SMILES: CC(=Cc1ccc(OC2OC(/C(C)=N/OCc3cccc(Cl)c3)C(O)C2O)c(OC(=O)C(C)(C)C)c1)C(=O)NC1C(O)C(O)C2OCOC2C1O (stereo not shown) [Example 1]
- antibacterial activity in the microtiter assay (MIC): exhibits antibacterial activity
